Source: patent publication US5744355A, “cDNA cloning and expression of human liver estrogen sulfotransferase” (Mayo Foundation for Medical Education and Research, priority 1995, dated 1998)

T1: protein encoded by the human liver EST cDNA (Homo sapiens, UniProt P49888)
T1 construct: made in house; host or cells: COS-1 (ATCC CRL-1650) cells transiently transfected with EST-p91023(B); 100,000 x g supernatant used
T1 sequence (P49888 1-294): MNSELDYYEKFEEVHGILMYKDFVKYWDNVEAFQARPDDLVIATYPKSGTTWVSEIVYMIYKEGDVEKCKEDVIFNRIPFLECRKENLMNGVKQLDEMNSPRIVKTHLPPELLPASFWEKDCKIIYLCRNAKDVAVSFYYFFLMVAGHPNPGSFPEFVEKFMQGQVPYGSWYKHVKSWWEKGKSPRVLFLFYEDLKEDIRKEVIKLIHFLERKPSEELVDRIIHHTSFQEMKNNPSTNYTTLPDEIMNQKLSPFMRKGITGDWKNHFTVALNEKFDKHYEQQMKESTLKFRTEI

T2: recombinant human liver DHEA ST enzyme (Homo sapiens, UniProt Q06520)
T2 sequence (Q06520 1-285): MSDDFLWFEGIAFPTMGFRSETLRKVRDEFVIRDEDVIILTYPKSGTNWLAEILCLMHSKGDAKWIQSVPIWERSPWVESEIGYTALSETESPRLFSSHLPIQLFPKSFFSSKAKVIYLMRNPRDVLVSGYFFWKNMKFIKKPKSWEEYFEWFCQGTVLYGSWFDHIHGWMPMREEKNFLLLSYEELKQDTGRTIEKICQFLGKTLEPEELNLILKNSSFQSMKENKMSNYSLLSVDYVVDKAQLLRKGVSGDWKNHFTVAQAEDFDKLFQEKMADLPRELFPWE

T3: recombinant human liver EST enzyme (Homo sapiens, UniProt P49888)
T3 sequence (P49888 1-294): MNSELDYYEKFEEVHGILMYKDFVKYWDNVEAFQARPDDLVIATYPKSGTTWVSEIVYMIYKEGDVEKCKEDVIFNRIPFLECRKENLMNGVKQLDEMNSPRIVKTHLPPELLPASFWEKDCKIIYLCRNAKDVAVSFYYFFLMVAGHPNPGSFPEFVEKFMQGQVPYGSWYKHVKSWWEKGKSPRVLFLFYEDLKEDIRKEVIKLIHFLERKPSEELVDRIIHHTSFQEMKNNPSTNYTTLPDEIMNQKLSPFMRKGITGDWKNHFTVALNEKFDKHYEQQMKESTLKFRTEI

T4: human EST enzyme (Homo sapiens, UniProt P49888)
T4 sequence (P49888 1-294): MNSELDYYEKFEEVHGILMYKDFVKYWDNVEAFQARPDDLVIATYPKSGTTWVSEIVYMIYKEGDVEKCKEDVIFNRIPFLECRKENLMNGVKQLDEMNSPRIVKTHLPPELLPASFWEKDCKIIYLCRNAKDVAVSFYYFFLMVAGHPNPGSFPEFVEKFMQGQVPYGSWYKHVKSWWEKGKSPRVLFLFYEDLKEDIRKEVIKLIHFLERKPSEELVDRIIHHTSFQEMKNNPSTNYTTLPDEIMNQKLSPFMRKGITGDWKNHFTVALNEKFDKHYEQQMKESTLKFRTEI


Assays:
[1] = molecular target: T1, protein encoded by the human liver EST cDNA; test: ST enzymatic activity after transfection of COS-1 cells with human liver EST cDNA in p91023(B); type: biochemical; conditions: for sulfation catalyzed by the protein encoded by the human liver EST cDNA: approximate values, transfected COS-1 cells; for ST enzymatic activity, EST cDNA, Average: average of two experiments; for ST enzymatic activity, EST cDNA, Average / ST enzymatic activity, EST cDNA, Expt. 1: HSS of transfected COS-1 cells
Experimental: COS-1 (ATCC No. CRL-1650) cells were transfected with an EST cDNA expression construct in the eukaryotic expression vector p91023(B) as well as with vector alone using the DEAE-dextran method (H. Luthman et al., Nucleic Acids Res., 11, 1295-1308 (1983)). Specifically, the COS-1 cells were plated in 100-mm dishes in Dulbecco's modified Eagle's medium (DMEM) supplemented with 10% fetal calf serum (FCS) at a density of 1.2×10^6 cells/dish, and were grown overnight. The EST-p91023(B)construct, a control human liver DHEA ST-p91023(B) construct, p91023(B) with no insert, or only buffer were mixed with DEAE-dextran and DMEM and were added to the cell culture dishes (J. H. McCutchan et al., J. Natl. Cancer Inst., 41, 351 (1968); R. J. Kaufman et al., Mol. Cell. Biol., 2, 946 (1989)). After 1 hour, the DEAE-dextran solution was replaced for 2 minutes by DMEM that contained 10% dimethylsulfoxide (DMSO), followed by 0.1 mM chloroquine in DMEM for 2 hours (H. Luthman et al., Nucleic Acids Res., 11, 1295 (1983)). Cells were then grown for 48 hours in DMEM supplemented with 10% FCS. After harvesting, cell pellets were washed with 5 ml of phosphate buffered saline (PBS) and were homogenized for 30 seconds in 2 ml of 5 mM potassium phosphate buffer, pH 6.5. The homogenates were centrifuged at 12,000-15,000×g for 15 minutes at 4° C., and supernatants were collected and centrifuged at 100,000×g for 1 hour at 4° C. Five μl aliquots of the 100,000×g "high-speed supernatants" (HSS) were assayed for ST enzymatic activities (Example IV).
ST activities were measured in preparations of transfected COS- 1 cells using DHEA, 4- nitrophenol and dopamine, model substrates for DHEA ST, TS PST and TL PST, respectively (Example IV). The assays were performed under optimal conditions for the measurement of these three enzyme activities in human liver preparations (N. R. C. Campbell et al., Biochem. Pharmacol., 36, 1435-1446 (1987); J. S. Hernandez et al., Drug Metab. Dispos., 20, 413-422 (1992), both of which are incorporated herein by reference). The sulfation of estrone was measured using optimal conditions for the assay of EST activity of human EST enzyme (Example III(c)).
Estrone was used as the substrate to determine optimal assay conditions and, subsequently, to characterize the properties of human EST enzyme. […] Mg^2+ is known to increase the activities of several ST enzymes (J. S. Hernandez et al., Drug Metab. Dispos., 20, 413-422 (1992); I. A. Aksoy et al., Druc, Metab. Dispos., 21, 268-276 (1993)). […]

[2] = molecular target: T2, recombinant human liver DHEA ST enzyme; test: Substrate kinetics (apparent Km), COS-1 expressed DHEA ST enzyme; type: biochemical; set-up: made in house; host or cells: COS-1 cells transiently transfected with human liver DHEA ST-p91023(B); 100,000 x g supernatant used; conditions: compound as sulfate acceptor substrate; estrone 0.2 to 100 μM, DHEA 0.06 to 10 μM
Experimental: (§1) Total reaction assay volume was about 200 μl . […] The tubes were vortexed after each addition.
(§2) Substrate kinetic studies designed to estimate apparent Km values were performed utilizing the EST and DHEA ST activity assays described above and in Example III. Since human liver EST enzyme and DHEA ST enzyme can both catalyze the sulfation of steroids, these studies presented an opportunity to determine apparent Km values of the two enzymes with estrone and DHEA as substrates. Both enzyme preparations were tested with a range of estrone and DHEA concentrations (Table III).
(§3) Apparent Km values were calculated by the method of Wilkinson (Biochem. J., 80, 324-332 (1961)) with a computer program written by Cleland (Nature, 198, 463-465 (1963)).

[3] = molecular target: T3, recombinant human liver EST enzyme; test: Substrate kinetics (apparent Km), COS-1 expressed EST enzyme; type: biochemical; set-up: made in house; host or cells: COS-1 (ATCC CRL-1650) cells transiently transfected with EST-p91023(B); 100,000 x g supernatant used; conditions: compound as sulfate acceptor substrate; estrone 0.01 to 0.1 μM, DHEA 0.0125 to 32 μM
Experimental: as §1, §2, §3

human EST enzyme = molecular target: T4, human EST enzyme; test: Preferred substrate and optimal assay conditions for recombinant human EST enzyme; type: biochemical
Experimental: Estrone was used as the substrate to determine optimal assay conditions and, subsequently, to characterize the properties of human EST enzyme. […] The optimal pH for the measurement of estrone ST activity with the expressed protein was approximately 6.5 in the presence of 8.2 mM potassium phosphate buffer. […] EST activity assays were subsequently performed on crude extracts from recombinant COS-1 cells expressing human EST enzyme using the optimal assay conditions thus identified: at a reaction pH of 6.5 in the presence of 1.25 mM MgCl2 with 0.05 μM estrone as the sulfate acceptor substrate, in 8.2 mM potassium phosphate buffer.

[4] = molecular target: T3, recombinant human liver EST enzyme; conditions: 150 mM NaCl; substrate estrone
Text: Estrone was used as the substrate to determine optimal assay conditions and, subsequently, to characterize the properties of human EST enzyme. […] Mg^2+ is known to increase the activities of several ST enzymes (J. S. Hernandez et al., Drug Metab. Dispos., 20, 413-422 (1992); I. A. Aksoy et al., Druc, Metab. Dispos., 21, 268-276 (1993)).

[5] = molecular target: T2, recombinant human liver DHEA ST enzyme; conditions: 75 mM NaCl; substrate DHEA
Experimental: The previously described EST and DHEA ST activity assays were used to measure ST activities of recombinant human liver EST enzyme and DHEA ST enzyme, respectively, wherein NaCl concentration in the reaction mixture was made 0.6 to 150 mM by the addition of 5 μL of a concentrated aqueous NaCl solution prior to incubation.

[6] = Thermal inactivation of ST activity; type: physicochemical, human; conditions: 15 minutes preincubation; mean ±SEM
Experimental: Aliquots of recombinant COS-1 cell extracts were incubated at 31°, 33°, 35°, 37°, 39°, 41°, 43° or 45° C. for 15 minutes prior to assay to determine thermal inactivation parameters. […] For the thermal inactivation experiment, aliquots of HSS from COS-1 cells transfected with EST cDNA or DHEA ST cDNA were diluted 1:2 (v/v) with 5 mM potassium phosphate buffer, pH 6.5, preincubated at various temperatures for 15 minutes and was then placed on ice. An aliquot of the same preparation was kept on ice as a control. Each aliquot was then diluted further for assay of the ST activity being measured. Values for controls were determined at each temperature studied. Data obtained during thermal inactivation and DCNP inhibition studies were analyzed with the GraphPAD InPlot curve-fitting program (GraphPAD InPlot Software, San Diego, Calif.).

[7] = first EST cDNA column, estrone 0.05 μM, DHEA 5 μM, 4-nitrophenol 4 μM, dopamine 60 μM, 1 unit = 1 nmol sulfated product per hour at 37° C.
[8] = second EST cDNA column, same substrate concentrations

| Molecule | sulfation catalyzed by the protein encoded by the human liver EST cDNA [1] | ST enzymatic activity, EST cDNA, Average [1] [units/mg protein] | ST enzymatic activity, EST cDNA, Expt. 1 [1, 7] [units/mg protein] | ST enzymatic activity, EST cDNA, Expt. 1 [1, 8] [units/mg protein] | other results |
| --- | --- | --- | --- | --- | --- |
| O=[N+]([O-])c1ccc(O)cc1 [4-Nitrophenol, 4-nitrophenol] | ~ 5 units/mg protein | 5.2 | 3.4 | 6.9 | – |
| C[C@]12CC[C@H](O)CC1=CC[C@@H]1[C@@H]2CC[C@]2(C)C(=O)CC[C@@H]12 [DHEA, dehydroepiandrosterone] | ~ 2 units/mg protein | 2.3 | 1.3 | 3.3 | Km [2]: 2.6 µM; Km [3]: 0.85 µM |
| NCCc1ccc(O)c(O)c1 [Dopamine, dopamine] | not | 0.0 | 0.0 | 0.0 | – |
| C[C@]12CC[C@@H]3c4ccc(O)cc4CC[C@H]3[C@@H]1CCC2=O [Estrone] | ~ 9 units/mg protein | 8.8 | 6.0 | 11.5 | sulfotransferase activity relative to other sulfate acceptor substrates (human EST enzyme; compared with estradiol-17β, ethinyl estradiol, or DHEA): greater sulfotransferase activity; estrone concentration giving maximal enzymatic activity (human EST enzyme; range 0.01 to 0.10 μM tested): 0.05 µM; Km [2]: 3.1 µM; Km [3]: 0.17 µM |
| [Cl-].[Cl-].[Mg+2] [Mg^2+, MgCl2] | – | – | – | – | increase of EST activity (human EST enzyme; 1.25 mM Mg2+, estrone as substrate): 20% |
| [Cl-].[Na+] [NaCl] | – | – | – | – | increase of EST activity [4]: 86%; peak activation of DHEA ST activity [5]: 62% |
| EST enzyme: recombinant human liver estrogen sulfotransferase (SEQ ID NO:2) expressed in COS-1 cells (protein) MNSELDYYEKFEEVHGILMYKDFVKYWDNVEAFQARPDDLVIATYPKSGTTWVSEIVYMIYKEGDVEKCKEDVIFNRIPFLECRKENLMNGVKQLDEMNSPRIVKTHLPPELLPASFWEKDCKIIYLCRNAKDVAVSFYYFFLMVAGHPNPGSFPEFVEKFMQGQVPYGSWYKHVKSWWEKGKSPRVLFLFYEDLKEDIRKEVIKLIHFLERKPSEELVDRIIHHTSFQEMKNNPSTNYTTLPDEIMNQKLSPFMRKGITGDWKNHFTVALNEKFDKHYEQQMKESTLKFRTEI | – | – | – | – | temperature at which 50% inactivation of activity occurred [6]: 38.2±0.12 °C |
